Source: PMC5382548 (Scientific Reports, 2015)

Legend:
MiaPaCa2 (pancreatic) = test: SRB short-term cytotoxicity assay, MiaPaCa2; type: cell-based; details: Homo sapiens, MIA PaCa-2, 96 h
Protocol: Short-term anti-proliferative assays were carried out by two different assays using a panel of human cancer and non-malignant human cell lines. […] The transformed human embryonic kidney cell line HEK293T (wt KRAS) was sensitive to all tested drugs, including TMPyP4, a cationic porphyrin established as a G4 ligand, as well as the anticancer drug 5-fluorouracil (5-FU).
Human cell lines, breast carcinoma (MCF7), lung carcinoma (A549), pancreatic cancer (MIA PaCa2, Panc-1), immortalised telomerase-negative human lung fibroblast (ALT) and normal human lung fibroblast (WI-38), were all purchased from American Type Cell Culture (ATCC). Cell lines were maintained in appropriate medium supplemented with 10% fetal bovine serum (Invitrogen, UK), 2 mM L-glutamine (Invitrogen, Netherlands), and other components as specified by the suppliers. All cell lines were maintained at 37°C, 5% CO2, and routinely passaged. Short-term growth inhibition was measured using the SRB assay as described previously[43] […]
After electrophoretic transfer onto nitrocellulose membranes, immunoblots were blocked with 5% milk solution, and next incubated overnight at 4 °C with primary mouse monoclonal antibody reactive to KRAS/p53 (#sc-30/sc-126; Santa Cruz Biotechnology Inc., Santa Cruz, CA, USA). […] Steady-state protein levels were expressed as mean ±SEM from at least three independent experiments.

KRAS21R G4 = test: Binding stoichiometry, Job plot (continuous variation); parameters: species or system human; details: [3e] + [G4] = 4 μM, 25°C
Protocol: In order to determine the number of ligand-binding sites, continuous variation analysis (Job plot)[27] of 3e with KRAS21R was performed. Plotting of fluorescence as a function of the mole fraction of 3e (χ) gave linear dependences at high and low molar fractions (Figure S9b).
The binding stoichiometry of indolo[3,2-c]quinoline derivative 3e with KRAS21R G4 was obtained by spectrophotofluorimetry at 25°C using the Job method of continuous variation. A previously annealed G4 stock solution at 25 μM (heating to 95°C for 10 min, followed by slow cooling to RT) of the non-labelled oligonucleotide sequences KRAS21R in K-cacodylate buffer pH 7.4 (containing 60 mM K^+) was used. Test compound was prepared at 1 mM concentration in HPLC-grade water (10% DMSO) stock solution. The rest of the dilutions were performed using K-cacodylate buffer. Total concentration of ligand and G4 in the solution was kept constant ([3e] + [G4] = 4 μM) as previously described.
Figure S9 | a) CD titration spectra of the KRAS21R and induced by titration with 3e in K-cacodylate buffer pH 7.4, containing 60 mM K+ at 25 °C. Solid black line – Pure G4 DNA at […]
sequentially from the top around 260 nm; b) Job Plot of 3e in complex with KRAS21R G4 in K-cacodylate buffer pH 7.4, containing 60 mM K+, at 25 °C. The sum of the concentrations of 3e and G4 was kept constant at 4 µM.
Figure S10. […]

Compound | IC50 (MiaPaCa2 (pancreatic)) [nM] | Job plot molar fraction at intersection (KRAS21R G4)
Cn1cc2c3ccccc3nc-2c2cc(Br)ccc21 [2a, 2-bromo-5-methyl-indolo[3,2-c]quinoline] | 2200 | –
CCN(CC)CCCNc1ccc2c(c1)[nH]c1c2c[n+](C)c2ccc(NCCCN(CC)CC)cc12.[Cl-] [3e] | 1980 | 0.61
